# Tested on: THP-1 Lucia ISG cells
# Experiment: ISRE-luciferase assay (ISG-LUC activation)
# Format: cell-based
# Settings: Homo sapiens, THP1-Lucia ISG, 24 hours, luciferase reporter
# Protocol: ISRE-luciferase assay. THP-1 Lucia ISG cells were resuspended in low-serum growth media (2% FBS) at a density of 5×10^5 cells/ml and treated with test article or vehicle (DMSO). 50 μL of cells were seeded into each well of a 384-well white greiner plates and incubated for 24 hours. To evaluate expression of the luciferase reporter, 30 μl of Quanti-luc (Invivogen) detection reagent was added to each well and luminescence was read using an Envision plate reader (Perkin Elmer) set with an integration time of 0.1 seconds. For each cell type, luminescence signals for test article samples were normalized to vehicle-treated samples and reported as relative light units (RLU).
row,EC50 [nM],Compound
1,500 to 5000,O=C(Nc1cc(OCCCCOc2cc(NC(=O)c3ccc(-n4ccnc4)nn3)c(C(=O)O)cc2F)ccc1C(=O)O)c1ccc(-n2ccnc2)nn1 [Compound 19]
2,50 to 500,O=C(Nc1cc(F)c(CCCc2cc(NC(=O)c3ccc4nnnn4n3)c(C(=O)O)cc2F)cc1C(=O)O)c1ccc(-n2ccnc2)nn1 [Compound 94]
3,50 to 500,O=C(Nc1cc(OCCCOc2cc(NC(=O)c3ccc(-n4ccnc4)nn3)c(C(=O)O)cc2F)c(F)cc1C(=O)O)c1ccc(-n2ccnc2)nn1 [Compound 168]
4,500 to 5000,O=C(Nc1cc(CCCc2ccc(C(=O)O)c(NC(=O)c3ccc4nnnn4n3)c2)ccc1C(=O)O)c1ccc2nnnn2n1 [Compound 14]
5,< 50,COC(=O)c1cc(F)c(OCCCCOc2c(F)cc(C(=O)OC)c(NC(=O)c3ccc(-n4ccnc4)nn3)c2F)c(F)c1NC(=O)c1ccc(-n2ccnc2)nn1 [Compound 36]
6,500 to 5000,O=C(Nc1cc(CCCc2cc(C(=O)O)c(NC(=O)c3ccc4nnnn4n3)cc2F)c(F)cc1C(=O)O)c1ccc(-n2ccnc2)nn1 [Compound 90]
7,50 to 500,COc1cc(C(=O)O)c(NC(=O)c2ccc(-n3ccnc3)nn2)cc1OCCc1cc(C(=O)O)c(NC(=O)c2ccc(-n3ccnc3)nn2)cc1C#N [Compound 130]
8,> 5000,COC(=O)c1cc(F)c(OCCCCOc2cc(NC(=O)c3ccc(-n4ccnc4)nn3)c(C(=O)OC)cc2F)cc1NC(=O)c1ccc(-n2ccnc2)nn1 [Compound 34]
9,50 to 500,O=C(Nc1cc(OCCc2cc(C(=O)O)c(NC(=O)c3ccc4nnnn4n3)cc2F)c(F)cc1C(=O)O)c1ccc(-n2ccnc2)nn1 [Compound 169]
10,50 to 500,COC(=O)c1cc(F)c(CCCc2cc(NC(=O)c3ccc(-n4ccnc4)nn3)c(C(=O)OC)s2)cc1NC(=O)c1ccc(-n2ccnc2)nn1 [Compound 165]
11,50 to 500,O=C(Nc1cc(CCCc2cc(NC(=O)c3ccc(-n4ccnc4)nn3)c(C(=O)O)cc2Cl)c(F)cc1C(=O)O)c1ccc(-n2ccnc2)nn1 [Compound 174]
12,500 to 5000,O=C(Nc1cc(CCCc2ccc(NC(=O)c3ccc4nnnn4n3)c(C(=O)O)c2)ccc1C(=O)O)c1ccc2nnnn2n1 [Compound 13]
13,500 to 5000,O=C(Nc1cc(CCCCc2cc(C(=O)O)c(NC(=O)c3ccc(-n4ccnc4)nn3)cc2F)c(F)cc1C(=O)O)c1ccc(-n2ccnc2)nn1 [Compound 127]
14,500 to 5000,O=C(Nc1cc(CCCc2cc(C(=O)O)c(NC(=O)c3ccc(-n4ccnc4)nn3)cc2F)c(F)cc1C(=O)O)c1ccc(-n2ccnc2)nn1 [Compound 70]
15,50 to 500,COc1nc(C(=O)O)c(NC(=O)c2ccc(-n3ccnc3)nn2)cc1CCCc1cc(NC(=O)c2ccc(-n3ccnc3)nn2)c(C(=O)O)cc1F [Compound 134]
16,50 to 500,O=C(Nc1cc(OCCc2cc(C(=O)O)c(NC(=O)c3ccc(-n4ccnc4)nn3)cc2Cl)c(F)cc1C(=O)O)c1ccc(-n2ccnc2)nn1 [Compound 166]
17,50 to 500,O=C(Nc1cc(CCCc2cc(NC(=O)c3ccc(-n4ccnc4)nn3)c(C(=O)O)cc2F)ccc1C(=O)O)c1ccc(-n2ccnc2)nn1 [Compound 68]
18,< 50,COC(=O)c1cc(Cl)c(OCCCCOc2cc(NC(=O)c3ccc(-n4ccnc4)nn3)c(C(=O)OC)cc2Cl)cc1NC(=O)c1ccc(-n2ccnc2)nn1 [Compound 23]
19,< 50,COC(=O)c1cc(F)c(COCc2cc(NC(=O)c3ccc(-n4ccnc4)nn3)c(C(=O)OC)cc2F)cc1NC(=O)c1ccc(-n2ccnc2)nn1 [Compound 155]
20,500 to 5000,COC(=O)c1cc(F)c(CCOc2cc(NC(=O)c3ccc(-n4ccnc4)nn3)c(C(=O)OC)cc2C#N)cc1NC(=O)c1ccc(-n2ccnc2)nn1 [Compound 163]
21,50 to 500,O=C(Nc1cc(CCCc2cc(NC(=O)c3ccc(-n4ccnc4)nn3)c(C(=O)O)cc2Cl)ccc1C(=O)O)c1ccc(-n2ccnc2)nn1 [Compound 66]
22,50 to 500,O=C(Nc1cc(CCCc2cc(NC(=O)c3ccc(-n4ccnc4)nn3)c(C(=O)O)s2)c(F)cc1C(=O)O)c1ccc(-n2ccnc2)nn1 [Compound 164]
23,> 5000,O=C(Nc1cc(CCCc2ccc(C(=O)O)c(NC(=O)c3ccc4nnnn4n3)c2)ccc1C(=O)O)c1ccc(-n2ccnc2)nn1 [Compound 63]
